Results on 5 compounds are retold here after ChEMBL document CHEMBL5715260, “Selectivity Literature for EUbOPEN Chemogenomic Library” (2024).

Set-up in all cases: recommended concentration 1 uM
The target in experiment [1] is T1, Retinoic acid receptor RXR-alpha (Homo sapiens) (UniProt P19793).
T1 sequence (whole entry): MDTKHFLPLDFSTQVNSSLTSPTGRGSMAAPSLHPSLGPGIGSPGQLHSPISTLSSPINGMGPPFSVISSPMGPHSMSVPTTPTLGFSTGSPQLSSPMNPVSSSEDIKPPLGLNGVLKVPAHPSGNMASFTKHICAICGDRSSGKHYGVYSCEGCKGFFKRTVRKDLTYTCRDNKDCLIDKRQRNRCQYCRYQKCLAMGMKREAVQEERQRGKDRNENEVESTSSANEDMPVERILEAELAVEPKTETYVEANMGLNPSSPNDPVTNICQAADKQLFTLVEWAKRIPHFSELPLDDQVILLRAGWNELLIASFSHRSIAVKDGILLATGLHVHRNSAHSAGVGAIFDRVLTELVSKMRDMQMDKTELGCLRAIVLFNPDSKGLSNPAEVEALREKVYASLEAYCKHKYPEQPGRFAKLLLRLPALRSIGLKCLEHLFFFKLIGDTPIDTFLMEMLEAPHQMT
As to the kind of experiment: Selectivity interaction (Reporter gene assay) EUB0001140a RXRA. For orientation: In a reporter assay the amount or activity of a reporter protein is the signal.

The target in experiment [2] is T2, Hepatocyte nuclear factor 4-alpha (Homo sapiens) (UniProt P41235).
T2 sequence (whole entry): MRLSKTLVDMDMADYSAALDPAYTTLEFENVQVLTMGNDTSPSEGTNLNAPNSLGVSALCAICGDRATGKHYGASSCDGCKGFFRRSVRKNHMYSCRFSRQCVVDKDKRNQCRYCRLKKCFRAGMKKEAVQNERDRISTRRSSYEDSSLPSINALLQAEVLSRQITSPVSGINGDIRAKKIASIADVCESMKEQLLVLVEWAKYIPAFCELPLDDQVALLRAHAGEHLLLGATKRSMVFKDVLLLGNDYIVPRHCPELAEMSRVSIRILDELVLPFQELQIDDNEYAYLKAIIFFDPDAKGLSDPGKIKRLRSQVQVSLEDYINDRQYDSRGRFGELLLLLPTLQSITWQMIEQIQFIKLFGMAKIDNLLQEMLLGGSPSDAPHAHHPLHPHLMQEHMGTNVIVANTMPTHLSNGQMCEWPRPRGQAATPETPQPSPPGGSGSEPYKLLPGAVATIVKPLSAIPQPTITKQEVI
As to the kind of experiment: Selectivity interaction (Reporter gene assay) EUB0001140a HNF4A.

The target in experiment [3] is T3, Alpha trans-inducing protein (Human alphaherpesvirus 1) (UniProt A0A5J6DW59). As to the kind of experiment: Selectivity interaction (Reporter gene assay) EUB0001140a UL48.
Experiment [4] has as its target T4, Nuclear receptor subfamily 2 group C member 1 (Homo sapiens) (UniProt P13056).
T4 sequence (whole entry): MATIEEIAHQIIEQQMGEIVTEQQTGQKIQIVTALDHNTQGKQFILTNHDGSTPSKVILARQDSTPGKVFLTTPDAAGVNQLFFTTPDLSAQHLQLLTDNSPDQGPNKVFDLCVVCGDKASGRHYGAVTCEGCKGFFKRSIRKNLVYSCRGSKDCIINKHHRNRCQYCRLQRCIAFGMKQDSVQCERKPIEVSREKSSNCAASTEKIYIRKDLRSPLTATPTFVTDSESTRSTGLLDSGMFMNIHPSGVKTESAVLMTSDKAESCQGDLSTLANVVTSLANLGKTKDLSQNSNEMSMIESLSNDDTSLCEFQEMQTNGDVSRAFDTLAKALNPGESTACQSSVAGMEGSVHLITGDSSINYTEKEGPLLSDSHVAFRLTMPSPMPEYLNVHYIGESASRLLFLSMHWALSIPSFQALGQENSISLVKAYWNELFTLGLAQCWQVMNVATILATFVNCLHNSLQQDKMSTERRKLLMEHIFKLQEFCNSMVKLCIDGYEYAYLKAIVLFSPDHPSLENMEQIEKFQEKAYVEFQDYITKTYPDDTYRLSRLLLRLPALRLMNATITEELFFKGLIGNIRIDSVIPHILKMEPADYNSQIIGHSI
As to the kind of experiment: Selectivity interaction (Reporter gene assay) EUB0001140a NR2C1.

The target in experiment [5] is Nuclear receptor subfamily 4immunitygroup A member 1 (Homo sapiens) (UniProt P22736). As to the kind of experiment: Selectivity interaction (Reporter gene assay) EUB0001140a NR4A1.
Experiment [6] addresses Nuclear receptor subfamily 2 group E member 1 (Homo sapiens) (UniProt Q9Y466). As to the kind of experiment: Selectivity interaction (Reporter gene assay) EUB0001140a NR2E1.
The target of experiment [7] is Steroidogenic factor 1 (Homo sapiens) (UniProt Q13285). As to the kind of experiment: Selectivity interaction (Reporter gene assay) EUB0001140a NR5A1.
For experiment [8], the target named is Peroxisome proliferator-activated receptor delta (Homo sapiens) (UniProt Q03181). As to the kind of experiment: Selectivity interaction (Reporter gene assay) EUB0001140a PPARD. The conditions noted are these: screened at recom. conc., Selectivity number of off-targets 1.0, Selectivity number of targets 19.0, Source Knowledge inhouse.
Experiment [9] deals with Nuclear receptor subfamily 2 group E member 1 (Homo sapiens) (UniProt Q9Y466). As to the kind of experiment: Selectivity interaction (Reporter gene assay) EUB0000835a NR2E1.
Experiment [10] concerns the target Steroidogenic factor 1 (Homo sapiens) (UniProt Q13285). As to the kind of experiment: Selectivity interaction (Reporter gene assay) EUB0000835a NR5A1.
Experiment [11] deals with T2, Hepatocyte nuclear factor 4-alpha (Homo sapiens). As to the kind of experiment: Selectivity interaction (Reporter gene assay) EUB0000835a HNF4A.
The target of experiment [12] is Nuclear receptor subfamily 4immunitygroup A member 1 (Homo sapiens) (UniProt P22736). As to the kind of experiment: Selectivity interaction (Reporter gene assay) EUB0000835a NR4A1.
In experiment [13] the target is T4, Nuclear receptor subfamily 2 group C member 1 (Homo sapiens). As to the kind of experiment: Selectivity interaction (Reporter gene assay) EUB0000835a NR2C1.
In experiment [14] the target is T1, Retinoic acid receptor RXR-alpha (Homo sapiens). As to the kind of experiment: Selectivity interaction (Reporter gene assay) EUB0000835a RXRA. The conditions noted are these: screened at recom. conc., reference bexarotene 1 uM, Selectivity number of off-targets 1.0, Selectivity number of targets 1.0, Source Knowledge inhouse.
Experiment [15] addresses T3, Alpha trans-inducing protein (Human alphaherpesvirus 1). As to the kind of experiment: Selectivity interaction (Reporter gene assay) EUB0000835a UL48.
In experiment [16] the target is Nuclear receptor subfamily 2 group E member 1 (Homo sapiens) (UniProt Q9Y466). As to the kind of experiment: Selectivity interaction (Reporter gene assay) EUB0001139a NR2E1.
Experiment [17] concerns the target Nuclear receptor subfamily 4immunitygroup A member 1 (Homo sapiens) (UniProt P22736). As to the kind of experiment: Selectivity interaction (Reporter gene assay) EUB0001139a NR4A1.
Experiment [18] deals with Steroidogenic factor 1 (Homo sapiens) (UniProt Q13285). As to the kind of experiment: Selectivity interaction (Reporter gene assay) EUB0001139a NR5A1. To be noted: screened at recom. conc., Selectivity number of off-targets 1.0, Selectivity number of targets 5.0, Source Knowledge inhouse.
The target of experiment [19] is T3, Alpha trans-inducing protein (Human alphaherpesvirus 1). As to the kind of experiment: Selectivity interaction (Reporter gene assay) EUB0001139a UL48.
The target in experiment [20] is T2, Hepatocyte nuclear factor 4-alpha (Homo sapiens). As to the kind of experiment: Selectivity interaction (Reporter gene assay) EUB0001139a HNF4A.
The target of experiment [21] is T1, Retinoic acid receptor RXR-alpha (Homo sapiens). As to the kind of experiment: Selectivity interaction (Reporter gene assay) EUB0001139a RXRA.
Experiment [22] concerns the target T4, Nuclear receptor subfamily 2 group C member 1 (Homo sapiens). As to the kind of experiment: Selectivity interaction (Reporter gene assay) EUB0001139a NR2C1.
In experiment [23] the target is Steroidogenic factor 1 (Homo sapiens) (UniProt Q13285). As to the kind of experiment: Selectivity interaction (Reporter gene assay) EUB0000583a NR5A1.
Experiment [24] concerns the target T1, Retinoic acid receptor RXR-alpha (Homo sapiens). As to the kind of experiment: Selectivity interaction (Reporter gene assay) EUB0000583a RXRA. The conditions noted are these: reference bexarotene 1 uM, Selectivity number of off-targets 0.0, Selectivity number of targets 1.0, Source Knowledge inhouse.
The target of experiment [25] is T4, Nuclear receptor subfamily 2 group C member 1 (Homo sapiens). As to the kind of experiment: Selectivity interaction (Reporter gene assay) EUB0000583a NR2C1.
Experiment [26] deals with Nuclear receptor subfamily 2 group E member 1 (Homo sapiens) (UniProt Q9Y466). As to the kind of experiment: Selectivity interaction (Reporter gene assay) EUB0000583a NR2E1.
In experiment [27] the target is T3, Alpha trans-inducing protein (Human alphaherpesvirus 1). As to the kind of experiment: Selectivity interaction (Reporter gene assay) EUB0000583a UL48.
The target of experiment [28] is T2, Hepatocyte nuclear factor 4-alpha (Homo sapiens). As to the kind of experiment: Selectivity interaction (Reporter gene assay) EUB0000583a HNF4A.
Experiment [29] deals with Nuclear receptor subfamily 4immunitygroup A member 1 (Homo sapiens) (UniProt P22736). As to the kind of experiment: Selectivity interaction (Reporter gene assay) EUB0000583a NR4A1.
Experiment [30] deals with Nuclear receptor subfamily 2 group E member 1 (Homo sapiens) (UniProt Q9Y466). As to the kind of experiment: Selectivity interaction (Reporter gene assay) EUB0000582a NR2E1.
Experiment [31] has as its target T3, Alpha trans-inducing protein (Human alphaherpesvirus 1). As to the kind of experiment: Selectivity interaction (Reporter gene assay) EUB0000582a UL48.
Experiment [32] has as its target Nuclear receptor subfamily 4immunitygroup A member 1 (Homo sapiens) (UniProt P22736). As to the kind of experiment: Selectivity interaction (Reporter gene assay) EUB0000582a NR4A1.
In experiment [33] the target is Steroidogenic factor 1 (Homo sapiens) (UniProt Q13285). As to the kind of experiment: Selectivity interaction (Reporter gene assay) EUB0000582a NR5A1.
Experiment [34] concerns the target T2, Hepatocyte nuclear factor 4-alpha (Homo sapiens). As to the kind of experiment: Selectivity interaction (Reporter gene assay) EUB0000582a HNF4A.
Experiment [35] concerns the target T1, Retinoic acid receptor RXR-alpha (Homo sapiens). As to the kind of experiment: Selectivity interaction (Reporter gene assay) EUB0000582a RXRA. The conditions noted are these: reference bexarotene 1 uM, Selectivity number of off-targets 0.0, Selectivity number of targets 1.0, Source Knowledge inhouse.
Experiment [36] has as its target T4, Nuclear receptor subfamily 2 group C member 1 (Homo sapiens). As to the kind of experiment: Selectivity interaction (Reporter gene assay) EUB0000582a NR2C1.

Steroidogenic factor 1 (Homo sapiens), sequence (Q13285 whole entry): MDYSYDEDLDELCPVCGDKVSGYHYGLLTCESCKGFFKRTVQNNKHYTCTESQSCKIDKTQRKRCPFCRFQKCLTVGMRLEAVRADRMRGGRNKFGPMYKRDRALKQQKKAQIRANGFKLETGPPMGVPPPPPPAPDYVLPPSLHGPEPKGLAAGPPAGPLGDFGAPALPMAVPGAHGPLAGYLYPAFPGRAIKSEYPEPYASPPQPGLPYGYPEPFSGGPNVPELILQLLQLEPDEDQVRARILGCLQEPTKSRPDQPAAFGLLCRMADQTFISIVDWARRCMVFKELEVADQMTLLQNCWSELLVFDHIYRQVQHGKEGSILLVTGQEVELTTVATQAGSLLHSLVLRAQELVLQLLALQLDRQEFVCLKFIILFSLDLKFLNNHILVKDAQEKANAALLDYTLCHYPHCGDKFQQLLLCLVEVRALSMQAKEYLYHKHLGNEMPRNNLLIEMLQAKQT
T3 sequence (A0A5J6DW59 as listed by the source): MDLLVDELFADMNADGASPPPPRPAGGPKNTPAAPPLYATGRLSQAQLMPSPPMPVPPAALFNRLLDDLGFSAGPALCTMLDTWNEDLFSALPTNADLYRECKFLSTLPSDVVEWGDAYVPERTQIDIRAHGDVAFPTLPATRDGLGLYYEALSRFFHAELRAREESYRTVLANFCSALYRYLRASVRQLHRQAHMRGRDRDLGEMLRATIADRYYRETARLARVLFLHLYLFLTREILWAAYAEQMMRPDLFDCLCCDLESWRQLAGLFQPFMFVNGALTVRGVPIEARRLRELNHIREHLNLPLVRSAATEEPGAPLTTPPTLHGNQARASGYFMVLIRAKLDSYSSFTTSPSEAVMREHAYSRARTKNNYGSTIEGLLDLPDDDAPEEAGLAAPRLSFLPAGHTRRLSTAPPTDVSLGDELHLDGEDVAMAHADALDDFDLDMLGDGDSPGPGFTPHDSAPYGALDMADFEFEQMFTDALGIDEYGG
Nuclear receptor subfamily 4immunitygroup A member 1 (Homo sapiens), sequence (P22736 whole entry): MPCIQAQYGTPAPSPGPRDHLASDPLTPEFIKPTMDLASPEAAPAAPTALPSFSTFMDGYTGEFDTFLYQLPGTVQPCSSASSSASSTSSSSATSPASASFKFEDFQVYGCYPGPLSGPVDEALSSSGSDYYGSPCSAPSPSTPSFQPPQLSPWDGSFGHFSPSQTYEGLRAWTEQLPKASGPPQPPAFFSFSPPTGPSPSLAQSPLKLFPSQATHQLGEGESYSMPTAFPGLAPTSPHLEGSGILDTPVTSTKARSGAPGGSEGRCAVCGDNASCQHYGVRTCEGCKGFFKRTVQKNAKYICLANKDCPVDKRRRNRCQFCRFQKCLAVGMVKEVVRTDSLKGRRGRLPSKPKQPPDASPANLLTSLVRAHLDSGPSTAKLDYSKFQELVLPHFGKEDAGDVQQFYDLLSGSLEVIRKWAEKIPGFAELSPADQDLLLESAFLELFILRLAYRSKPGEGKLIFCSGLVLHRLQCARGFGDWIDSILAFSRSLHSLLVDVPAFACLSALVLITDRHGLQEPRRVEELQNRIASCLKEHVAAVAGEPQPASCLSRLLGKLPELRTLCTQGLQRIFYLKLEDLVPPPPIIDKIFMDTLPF
Nuclear receptor subfamily 2 group E member 1 (Homo sapiens), sequence (Q9Y466 whole entry): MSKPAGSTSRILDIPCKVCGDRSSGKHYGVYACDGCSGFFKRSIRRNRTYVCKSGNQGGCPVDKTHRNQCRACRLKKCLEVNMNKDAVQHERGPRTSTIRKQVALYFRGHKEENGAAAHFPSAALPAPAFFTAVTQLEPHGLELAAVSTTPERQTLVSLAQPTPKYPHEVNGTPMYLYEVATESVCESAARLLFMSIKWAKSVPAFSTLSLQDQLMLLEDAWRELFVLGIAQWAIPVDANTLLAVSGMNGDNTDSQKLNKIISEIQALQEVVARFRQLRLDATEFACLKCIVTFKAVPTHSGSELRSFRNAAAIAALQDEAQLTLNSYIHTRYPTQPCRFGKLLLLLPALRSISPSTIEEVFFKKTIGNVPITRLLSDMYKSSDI
Peroxisome proliferator-activated receptor delta (Homo sapiens), sequence (Q03181 whole entry): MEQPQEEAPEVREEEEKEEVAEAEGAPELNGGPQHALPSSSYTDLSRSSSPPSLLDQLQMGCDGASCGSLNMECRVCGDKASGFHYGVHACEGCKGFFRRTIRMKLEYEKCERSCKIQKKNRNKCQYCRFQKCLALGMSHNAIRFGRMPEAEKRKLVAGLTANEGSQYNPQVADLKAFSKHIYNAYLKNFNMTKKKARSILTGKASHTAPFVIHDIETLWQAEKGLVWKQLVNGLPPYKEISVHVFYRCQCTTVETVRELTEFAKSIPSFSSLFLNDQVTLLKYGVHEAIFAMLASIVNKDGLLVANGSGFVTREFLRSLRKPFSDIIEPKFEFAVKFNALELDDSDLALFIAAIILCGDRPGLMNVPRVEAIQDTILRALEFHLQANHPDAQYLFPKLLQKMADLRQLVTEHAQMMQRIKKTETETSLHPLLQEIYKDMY

`COc1ccc(OC(=O)N(CC(=O)O)Cc2ccc(OCCc3nc(-c4ccccc4)oc3C)cc2)cc1` yielded a Relative activation in [1] of 0.862%. The Remaining activity in experiment [2] is 0.799; in experiment [4] it was 0.747; in [6], 0.91; in [7], 0.916. Besides, the P-value in experiment [3] was 2.24e-06. In addition, the Fold activation in experiment [5] was determined as 1.19; in experiment [8], 6.61.

Regarding `C[C@H]1[C@H]2CC[C@H]3[C@@H]4CC=C5C[C@@H](N(C)C)CC[C@]5(C)[C@H]4CC[C@]23CN1C`, the Remaining activity in experiment [9] turned out to be 0.746; in experiment [10] it was 0.758; in experiment [12] it was 0.964; in experiment [13], 0.83. This compound yielded a Fold activation in experiment [11] of 1.09. In addition, the Relative activation in experiment [14] amounted to 19.4%. In addition, the P-value in experiment [15] amounted to 0.00302.

Turning to `O=C(O)Cc1cc(I)c(Oc2ccc(O)c(I)c2)c(I)c1`, the Fold activation in [16] was found to be 1.12; in experiment [18], 2; in experiment [20], 1.47. For the same compound, the Remaining activity in [17] came to 0.863; in experiment [22] it was 0.686. The same compound returned a P-value in [19] of 0.009. Moreover, in [21], the Relative activation amounted to 0.726%.

`C=C1/C(=C\C=C2/CCC[C@]3(C)[C@@H]([C@H](C)/C=C/[C@H](C)C(C)C)CC[C@@H]23)C[C@@H](O)C[C@@H]1O`: the Fold activation in experiment [23] was found to be 1.08; in [25], 1.19. For the same compound, the Relative activation in experiment [24] was found to be 0.635%. For the same compound, the Remaining activity in experiment [26] amounted to 0.883; in experiment [28], 0.993; in [29], 0.837. Further, the P-value in experiment [27] was found to be 0.000557.

Turning to `C=C1/C(=C\C=C2/CCC[C@]3(C)[C@@H]([C@H](C)/C=C/C=C/C(O)(CC)CC)CC[C@@H]23)C[C@@H](O)C[C@@H]1O`, the Fold activation came to 0.996 in [30]; 1.19 in experiment [32]; 1.27 in experiment [33]; 1.08 in experiment [34]; 1.62 in [36]. This compound yielded a P-value in experiment [31] of 0.000219. This compound also yielded a Relative activation in [35] of 0.643%.
